This is an account of results in patent US20240408169A1 (priority 2023, published 2024).

Broadly, the GI50 is the concentration at which growth is held to half of that of the control. Read a high GI50 as lower sensitivity of the cells. In general, IC50 refers to the concentration at which inhibition is half-maximal.

One test relates to WI-38 cells. Nature of the test: MTT proliferation assay, WI-38.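 Note: Eight- or ten-point dilution series, with exposure length chosen to span about three to four cell doublings.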 The class given is cell-based. Conditions: 3 days compound exposure, 1:3 serial dilution starting at 10 μM. Background: Tetrazolium assays rely on reduction of a dye to a coloured formazan, in cell work by metabolically active cells.
A further test has as its system OVCAR3 cells. Nature of the test: MTT proliferation assay, OVCAR3.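 Note: compound given as an 8- or 10-point series, one day after plating, with exposure covering roughly 3-4 cell doublings.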 Particulars: 5 days compound exposure, 1:3 serial dilution starting at 10 μM. The class given is cell-based.
The target of another test is T1, CyclinB1/CDK1 (Homo sapiens, UniProt P14635).
T1 construct: purchased Eurofins, discovery 14-450
The experiment in a line: Fluorescence Polarization (FP) competitive binding assay, Cyclin B1/Cdk1.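 Note: fluorescence polarization read after equilibration at room temperature, with IC50 taken from serially diluted dose-response curves.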 Conditions: 10 nM Cyclin B1/Cdk1, 2 nM FAM probe; average of 2-3 independent experiments; read-out: Cyclin B FP IC50.

The target in another test is T2, CyclinA2/CDK2 (Homo sapiens, UniProt P20248).
T2 construct: purchased CRELUX Protein Services
Nature of the test: Fluorescence Polarization (FP) competitive binding assay, Cyclin A2/Cdk2.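 Note: plates equilibrated two hours at room temperature before polarization reading, IC50 fitted from eight-concentration compound titration curves.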 Particulars: 8 nM Cyclin A2/Cdk2, 2 nM FAM probe; average of 2-3 independent experiments; read-out: Cyclin A FP IC50. (In fluorescence polarisation assays a small probe gives low polarisation when free and higher when bound to something large.)

In the next test the target is T3, CyclinE1/CDK2 (Homo sapiens, UniProt P24864).
T3 construct: purchased Eurofins, discovery 14-475
The experiment in a line: Fluorescence Polarization (FP) competitive binding assay, Cyclin E1/Cdk2.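 Note: readings taken after two-hour equilibration at room temperature in HEPES buffer with NaCl, DTT, NP-40 and BSA, IC50 fitted from eight-concentration serial dilution series.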 Particulars: 10 nM Cyclin E1/Cdk2, 2 nM FAM probe; average of 2-3 independent experiments; read-out: Cyclin E FP IC50.

The next test relates to NCI-H1048 cells. The experiment in a line: MTT proliferation assay, NCI-H1048.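 Note: Dose-response in 96-well plates over 8 or 10 concentration points, with exposure spanning 3-4 cell doublings.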 Format: cell-based. Conditions: 5 days compound exposure, 1:3 serial dilution starting at 10 μM.

Structures are written as SMILES. *1 amine or outer side, *2 acyl side, *3 side chain or, on linkers, in order; H or OH if unused. Where a SMILES comes first, the peptide text is derived from it. Bridges are numbered along the chain shown (N, C = ends). [ ]: non-standard residue; d: D form. The star is where a group is joined. X106 = CN([C@@H](Cc1cc(Cl)ccc1-c1ccc(N2CCN(Cc3ccccn3)CC2)cc1)C(=O)[*:2])[*:1]; NMePhe(2-(4-MorPh),5-Cl) = CN[C@@H](Cc1cc(Cl)ccc1-c1ccc(N2CCOCC2)cc1)C(=O)O; X21 = CN([C@@H](Cc1cc(Cl)ccc1-c1ccc(N2CCN3CCOC[C@H]3C2)cc1)C(=O)[*:2])[*:1]; X85 = CN([C@@H](Cc1cc(Cl)ccc1-c1ccc([C@]23CCOC[C@H]2C3)nc1)C(=O)[*:2])[*:1]; X45 = CN1CCC(F)(c2ccc(-c3ccc(Cl)cc3C[C@@H](C(=O)[*:2])N(C)[*:1])cc2)CC1; X91 = COc1cc(-c2ccc(Cl)cc2C[C@@H](C(=O)[*:2])N(C)[*:1])ccc1N1CCOCC1; NMehhhLys(Me) = CN([C@@H](CCCCCCCN(C)[*:3])C(=O)[*:2])[*:1]; cBuCO(3,3-F2-1-CF3) = O=C(C1(C(F)(F)F)CC(F)(F)C1)*; Pro(trans-4-F) = O=C(O)[C@@H]1C[C@@H](F)CN1; Gly(cPr) = N[C@H](C(=O)O)C1CC1; X65 = CC1(C(=O)*)CC(F)(F)C1

Turning to `CC(C)C[C@@H]1NC(=O)[C@@H](N(C)C(=O)[C@@H](NC(=O)[C@@H]2C[C@@H](F)CN2C(=O)C2(C(F)(F)F)CC(F)(F)C2)C2CC2)CCCCCCCN(C)C(=O)[C@H](Cc2cc(Cl)ccc2-c2ccc(N3CCN4CCOC[C@H]4C3)cc2)N(C)C1=O` [Example 364] ({cBuCO(3,3-F2-1-CF3)}-[Pro(trans-4-F)][Gly(cPr)][NMehhhLys(Me)]L[X21]; lactam 3-C), the GI50 with WI-38 cells is 3250 nM; with OVCAR3 cells, 10 nM; in the test on NCI-H1048 cells, 10 nM. For the same compound, the concentration for half-maximal inhibition (IC50) on CyclinB1/CDK1 was 20 nM; at CyclinA2/CDK2, 20 nM; at CyclinE1/CDK2 it was 430 nM.

Take `CC(C)C[C@@H]1NC(=O)[C@@H](N(C)C(=O)[C@@H](NC(=O)[C@@H]2C[C@@H](F)CN2C(=O)C2(C)CC(F)(F)C2)C2CC2)CCCCCCCN(C)C(=O)[C@H](Cc2cc(Cl)ccc2-c2ccc(N3CCOCC3)cc2)N(C)C1=O` [Example 365] (X65-[Pro(trans-4-F)][Gly(cPr)][NMehhhLys(Me)]L[NMePhe(2-(4-MorPh),5-Cl)]; lactam 3-C): the 50% growth inhibitory concentration (GI50) with WI-38 cells is 3180 nM; in the test with OVCAR3 cells it was 10 nM; with NCI-H1048 cells, 10 nM. The IC50 on CyclinB1/CDK1 came out at 20 nM; at CyclinA2/CDK2 it was 20 nM; at CyclinE1/CDK2, 1170 nM.

In the case of `COc1cc(-c2ccc(Cl)cc2C[C@H]2C(=O)N(C)CCCCCCC[C@H](N(C)C(=O)[C@@H](NC(=O)[C@@H]3C[C@@H](F)CN3C(=O)C3(C(F)(F)F)CC(F)(F)C3)C3CC3)C(=O)N[C@@H](CC(C)C)C(=O)N2C)ccc1N1CCOCC1` [Example 367] ({cBuCO(3,3-F2-1-CF3)}-[Pro(trans-4-F)][Gly(cPr)][NMehhhLys(Me)]L[X91]; lactam 3-C), the GI50 came out at 14700 nM in the test on WI-38 cells, 10 nM in the test with OVCAR3 cells and 20 nM in the test on NCI-H1048 cells. Also, the values for the half-maximal inhibitory concentration (IC50) at CyclinB1/CDK1, on CyclinA2/CDK2 and on CyclinE1/CDK2 were 20 nM, 20 nM and 1100 nM, respectively.

Regarding `CC(C)C[C@@H]1NC(=O)[C@@H](N(C)C(=O)[C@@H](NC(=O)[C@@H]2C[C@@H](F)CN2C(=O)C2(C(F)(F)F)CC(F)(F)C2)C2CC2)CCCCCCCN(C)C(=O)[C@H](Cc2cc(Cl)ccc2-c2ccc(N3CCN(Cc4ccccn4)CC3)cc2)N(C)C1=O` [Example 368] ({cBuCO(3,3-F2-1-CF3)}-[Pro(trans-4-F)][Gly(cPr)][NMehhhLys(Me)]L[X106]; lactam 3-C), the GI50 in the test with WI-38 cells came to 15200 nM; in the test with OVCAR3 cells it was 10 nM; with NCI-H1048 cells, 10 nM. Further, the concentration for half-maximal inhibition (IC50) on CyclinB1/CDK1 was 20 nM; at CyclinA2/CDK2 it was 20 nM; on CyclinE1/CDK2, 480 nM.

`CC(C)C[C@@H]1NC(=O)[C@@H](N(C)C(=O)[C@@H](NC(=O)[C@@H]2C[C@@H](F)CN2C(=O)C2(C(F)(F)F)CC(F)(F)C2)C2CC2)CCCCCCCN(C)C(=O)[C@H](Cc2cc(Cl)ccc2-c2ccc([C@]34CCOC[C@H]3C4)nc2)N(C)C1=O` [Example 369] ({cBuCO(3,3-F2-1-CF3)}-[Pro(trans-4-F)][Gly(cPr)][NMehhhLys(Me)]L[X85]; lactam 3-C): the GI50 came out at 4540 nM with WI-38 cells, 20 nM with OVCAR3 cells and 20 nM with NCI-H1048 cells. In addition, the figures for the IC50 at CyclinB1/CDK1, at CyclinA2/CDK2 and at CyclinE1/CDK2 were 20 nM, 20 nM and 1490 nM, respectively.

On to `CC(C)C[C@@H]1NC(=O)[C@@H](N(C)C(=O)[C@@H](NC(=O)[C@@H]2C[C@@H](F)CN2C(=O)C2(C(F)(F)F)CC(F)(F)C2)C2CC2)CCCCCCCN(C)C(=O)[C@H](Cc2cc(Cl)ccc2-c2ccc(C3(F)CCN(C)CC3)cc2)N(C)C1=O` [Example 370] ({cBuCO(3,3-F2-1-CF3)}-[Pro(trans-4-F)][Gly(cPr)][NMehhhLys(Me)]L[X45]; lactam 3-C), for which the 50% growth inhibitory concentration (GI50) with WI-38 cells is 1210 nM; in the test on OVCAR3 cells, 20 nM; in the test with NCI-H1048 cells, 20 nM. Moreover, the IC50 is 20 nM on CyclinB1/CDK1, 20 nM at CyclinA2/CDK2 and 780 nM on CyclinE1/CDK2.
